In patent US6825172B2, “3-descladinosyl-6-O-carbamoyl and 6-O-carbonoyl macrolide antibacterial agents” (Janssen Pharmaceutica, NV, priority 2002, dated 2004) one finds MIC data, which are given here for 9 compounds.

Holding throughout (experiment): MIC, microdilution broth method (NCCLS)
Common to all, as to assay type: cell-based
In general terms: In broth dilution the organism is exposed to a series of concentrations in liquid medium.

In one experiment the test system is E. faecalis ATCC29212. The following applies: Enterococcus faecalis, read-out: MIC Values, C: E. faecalis ATCC29212. The method, then: (§1) Minimal inhibitory concentration (MIC) has been an indicator of in vitro antibacterial activity widely used in the art. The in vitro antimicrobial activity of the compounds was determined by the microdilution broth method following the test method from the National Committee for Clinical Laboratory Standards (NCCLS). This method is described in the NCCLS Document M7-A4, Vol.17, No.2, “Methods for Dilution Antimicrobial Susceptibility Test for Bacteria that Grow Aerobically—Fourth Edition”, which is incorporated herein by reference.
(§2) In this method two-fold serial dilutions of drug in cation adjusted Mueller-Hinton broth are added to wells in microdilution trays. The test organisms are prepared by adjusting the turbidity of actively growing broth cultures so that the final concentration of test organism after it is added to the wells is approximately 5×10^4 CFU/well.
(§3) Following inoculation of the microdilution trays, the trays are incubated at 35 °C for 16-20 hours and then read. […] The amount of growth in the wells containing the test compound is compared with the amount of growth in the growth-control wells (no test compound) used in each tray. As set forth in Table 1, compounds of the present invention were tested against a variety of Gram positive and Gram negative pathogenic bacteria resulting in a range of activities depending on the organism tested.

Another experiment relates to S. aureus ATCC29213. Conditions: Staphylococcus aureus, read-out: MIC Values, B: S. aureus ATCC29213. As to the method: as §1, §2, §3
The test system of the next experiment is S. pneumoniae ATCC49619. Conditions: Streptococcus pneumoniae, read-out: MIC Values, D: S. pneumoniae ATCC49619. The method, then:
as §1, §2, §3

Setting [1] is: Table 2, 3,6-Dicarbamoyl Macrolide Derivatives.
The mark [2] stands for this setting: Table 1, 6-Carbamoyl-3-Acyl Macrolide Derivatives.
Setting [3] is: Table 3, 6-Carbonate Macrolide Derivatives.

SMILES strings stand for the structures. Values after ≈ are worked out from the molar mass of the structure shown. Like-named read-outs stand apart in the source and are kept apart here.

As to `CC[C@H]1OC(=O)[C@H](C)[C@@H](OC(=O)N(CC)CC)[C@H](C)[C@@H](O[C@@H]2O[C@H](C)C[C@H](N(C)C)[C@H]2O)[C@](C)(OC(=O)NC/C=C/c2ccc(-c3ccn(C)n3)cc2)C[C@@H](C)C(=O)[C@H](C)[C@H]2NC(=O)O[C@@]21C` [Compound 73], the MIC with E. faecalis ATCC29212 (setting [1]) came to 0.5 µg/mL (≈ 0.532 µM); in the experiment with S. aureus ATCC29213 (setting [1]), 1 µg/mL (≈ 1.06 µM); in the experiment on S. pneumoniae ATCC49619 (setting [1]), 0.12 µg/mL (≈ 0.128 µM).

As to `CC[C@H]1OC(=O)[C@H](C)[C@@H](OC(=O)C(C)C)[C@H](C)[C@@H](O[C@@H]2O[C@H](C)C[C@H](N(C)C)[C@H]2O)[C@](C)(OC(=O)NC/C=C/c2ccc(-c3ccn(C)n3)cc2)C[C@@H](C)C(=O)[C@H](C)[C@H]2NC(=O)O[C@@]21C` [Compound 49], the MIC in the experiment with E. faecalis ATCC29212 (setting [2]) was found to be 1 µg/mL (≈ 1.1 µM); in the experiment on S. aureus ATCC29213 (setting [2]), 1 µg/mL (≈ 1.1 µM); in the experiment with S. pneumoniae ATCC49619 (setting [2]), 0.06 µg/mL (≈ 0.0659 µM).

Take `CC[C@H]1OC(=O)[C@H](C)[C@@H](OC(=O)Cc2cccnc2)[C@H](C)[C@@H](O[C@@H]2O[C@H](C)C[C@H](N(C)C)[C@H]2O)[C@](C)(OC(=O)OC/C=C/c2ccc(-c3cccnn3)cc2)C[C@@H](C)C(=O)[C@H](C)[C@H]2NC(=O)O[C@@]21C` [Compound 79, 3-Pyridineacetic acid, (3aS,4R,7R,8S,9S,10R,11R,13R,15R,15aR)-4-ethyltetradecahydro-3a,7,9,11,13,15-hexamethyl-2,6,14-trioxo-11-[[[[(2E)-3-[4-(3-pyridazinyl)phenyl]-2-propenyl]oxy]carbonyl]oxy]-10-[[3,4,6-trideoxy-3-(dimethylamino)-β-D-xylo-hexopyranosyl]oxy]-2H-oxacyclotetradecino[4,3-d]oxazol-8-yl ester]: the MIC in the experiment with E. faecalis ATCC29212 (setting [3]) was determined as 0.5 µg/mL (≈ 0.522 µM); in the experiment with S. aureus ATCC29213 (setting [3]) it was 1 µg/mL (≈ 1.04 µM); with S. pneumoniae ATCC49619 (setting [3]), 0.06 µg/mL (≈ 0.0626 µM).

For the compound `CC[C@H]1OC(=O)[C@H](C)[C@@H](OC(=O)C(C)C)[C@H](C)[C@@H](O[C@@H]2O[C@H](C)C[C@H](N(C)C)[C@H]2O)[C@](C)(OC(=O)OC/C=C/c2ccc(-c3cccnn3)cc2)C[C@@H](C)C(=O)[C@H](C)[C@H]2NC(=O)O[C@@]21C` [Compound 82], the MIC in the experiment with E. faecalis ATCC29212 (setting [3]) worked out at 0.5 µg/mL (≈ 0.55 µM); with S. aureus ATCC29213 (setting [3]), 0.5 µg/mL (≈ 0.55 µM); in the experiment on S. pneumoniae ATCC49619 (setting [3]), 0.06 µg/mL (≈ 0.066 µM).

As to `CC[C@H]1OC(=O)[C@H](C)[C@@H](OC(=O)N(CC)CC)[C@H](C)[C@@H](O[C@@H]2O[C@H](C)C[C@H](N(C)C)[C@H]2OC(C)=O)[C@](C)(OC(=O)OC/C=C/c2ccc(-c3ncccn3)cc2)C[C@@H](C)C(=O)[C@H](C)[C@H]2NC(=O)O[C@@]21C` [Compound 75], the figures for the MIC in the experiment on E. faecalis ATCC29212 (setting [3]), with S. aureus ATCC29213 (setting [3]) and with S. pneumoniae ATCC49619 (setting [3]) were 0.5 µg/mL (≈ 0.51 µM), 1 µg/mL (≈ 1.02 µM) and 0.25 µg/mL (≈ 0.255 µM), respectively.

Regarding `CC[C@H]1OC(=O)[C@H](C)[C@@H](OC(=O)C(C)C)[C@H](C)[C@@H](O[C@@H]2O[C@H](C)C[C@H](N(C)C)[C@H]2O)[C@](C)(OC(=O)NC/C=C/c2ccc(-c3cccnn3)cc2)C[C@@H](C)C(=O)[C@H](C)[C@H]2NC(=O)O[C@@]21C` [Compound 46], the MIC in the experiment on E. faecalis ATCC29212 (setting [2]) was determined as 0.12 µg/mL (≈ 0.132 µM); in the experiment on S. aureus ATCC29213 (setting [2]) it was 0.5 µg/mL (≈ 0.551 µM); with S. pneumoniae ATCC49619 (setting [2]) it was 0.06 µg/mL (≈ 0.0661 µM).

As for `CC[C@H]1OC(=O)[C@H](C)[C@@H](OC(=O)N(CC)CC)[C@H](C)[C@@H](O[C@@H]2O[C@H](C)C[C@H](N(C)C)[C@H]2O)[C@](C)(OC(=O)NC/C=C/c2ccc(-c3cnccn3)cc2)C[C@@H](C)C(=O)[C@H](C)[C@H]2NC(=O)O[C@@]21C` [Compound 69], the figures for the MIC in the experiment on E. faecalis ATCC29212 (setting [1]), in the experiment with S. aureus ATCC29213 (setting [1]) and in the experiment on S. pneumoniae ATCC49619 (setting [1]) were 0.5 µg/mL (≈ 0.534 µM), 0.5 µg/mL (≈ 0.534 µM) and 0.06 µg/mL (≈ 0.064 µM), respectively.

Take `CC[C@H]1OC(=O)[C@H](C)[C@@H](OC(=O)Cc2cccnc2)[C@H](C)[C@@H](O[C@@H]2O[C@H](C)C[C@H](N(C)C)[C@H]2O)[C@](C)(OC(=O)NC/C=C/c2cnc(C(C)(C)C)nc2)C[C@@H](C)C(=O)[C@H](C)[C@H]2NC(=O)O[C@@]21C` [Compound 42]: the results for the MIC in the experiment with E. faecalis ATCC29212 (setting [2]), in the experiment with S. aureus ATCC29213 (setting [2]) and in the experiment with S. pneumoniae ATCC49619 (setting [2]) were 0.5 µg/mL (≈ 0.534 µM), 1 µg/mL (≈ 1.07 µM) and 0.06 µg/mL (≈ 0.064 µM), respectively.

`CC[C@H]1OC(=O)[C@H](C)[C@@H](OC(=O)Cc2cccnc2)[C@H](C)[C@@H](O[C@@H]2O[C@H](C)C[C@H](N(C)C)[C@H]2O)[C@](C)(OC(=O)OC/C=C/c2ccc(-c3ncccn3)cc2)C[C@@H](C)C(=O)[C@H](C)[C@H]2NC(=O)O[C@@]21C` [Compound 78]: the values for the MIC with E. faecalis ATCC29212 (setting [3]), in the experiment with S. aureus ATCC29213 (setting [3]) and in the experiment on S. pneumoniae ATCC49619 (setting [3]) were 0.25 µg/mL (≈ 0.261 µM), 0.25 µg/mL (≈ 0.261 µM) and 0.03 µg/mL (≈ 0.0313 µM), respectively.

Usually MIC stands for the smallest concentration in the dilution series that meets the test's criterion for growth inhibition.
